Reference: US8575091B1, “Amylin analogues and pharmaceutical compositions thereof” (Novo Nordisk A/S, priority 2012, dated 2013)
Numbered stars: 1 amine (or outer) side, 2 acyl side, 3 side chain; on linkers, the order of the positions; unused ones are H or OH. Bridge positions count the residues as written; N and C are the ends. Side chains are listed from the residue outwards. Peptide text beside a SMILES is read from it. * marks the point of attachment. C20 diacid = O=C(O)CCCCCCCCCCCCCCCCCCC(=O)*; γGlu = O=C(O)[C@H](CCC(=O)[*:2])N[*:1]

How the values were obtained:
[1] = target: T1, human calcitonin receptor (Homo sapiens, UniProt P30988); test: Assay (II)a functional assay, human calcitonin receptor (CRE luciferase, BHK cells);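 note: luminescence from a CRE-driven luciferase reporter, read by single photon counting after cells were exposed to test samples for 3 h at 37 °C under 5% CO2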; format: cell-based; details: read-out: hCTR funct. EC50
T1 construct: expressed in transfected cells
T1 sequence (P30988 25-474): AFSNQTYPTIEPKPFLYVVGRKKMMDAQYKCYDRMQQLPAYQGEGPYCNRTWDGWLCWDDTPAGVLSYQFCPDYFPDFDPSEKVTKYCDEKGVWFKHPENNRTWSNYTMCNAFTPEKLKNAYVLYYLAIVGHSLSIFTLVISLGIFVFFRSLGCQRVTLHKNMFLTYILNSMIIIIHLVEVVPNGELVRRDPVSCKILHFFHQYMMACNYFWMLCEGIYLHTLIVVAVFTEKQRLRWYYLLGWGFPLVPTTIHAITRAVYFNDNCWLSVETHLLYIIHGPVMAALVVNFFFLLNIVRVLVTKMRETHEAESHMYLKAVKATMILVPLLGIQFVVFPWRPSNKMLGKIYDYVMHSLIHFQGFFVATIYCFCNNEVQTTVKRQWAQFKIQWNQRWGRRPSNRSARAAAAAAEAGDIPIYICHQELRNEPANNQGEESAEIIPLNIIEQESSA

[2] = target: T2, human amylin receptor (Homo sapiens, UniProt O60896+P30988); test: Assay (V) binding to the human amylin receptor (SPA, 125I-rat amylin); details: human amylin receptor membranes, SPA; read-out: hAmylin-R bind IC50
T2 construct: expressed in transfected cells
T2 sequence (P30988 25-474): T1 sequence (P30988 25-474)
T2 sequence (O60896 24-148 partner): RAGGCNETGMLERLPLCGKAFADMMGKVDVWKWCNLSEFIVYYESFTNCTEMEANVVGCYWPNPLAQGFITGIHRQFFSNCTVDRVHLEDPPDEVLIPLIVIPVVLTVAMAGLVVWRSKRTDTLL
How it was run: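 SPA competition binding on membranes from Amylin 3(a)/CRE-luc cells, 35 ng/μL membranes with 0.05 mg/well beads. Buffer 50 mM Hepes pH 7.4, 1 mM CaCl2, 5 mM MgCl2, 0.1% OA, 0.02% Tween20. IC50 from one-site competition fit as affinity measure.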

[3] = system: Wistar rats; test: Assay (XII) single subcutaneous administration, plasma calcium in rats; format: in vivo, rat; details: for Plasma calcium red (%) 0-12 h: single s.c., maximal reduction 0-12 h, compared to vehicle
Protocol: Assay (XII)—Effect from Single Subcutaneous Administration of Analogue on Plasma Calcium in Rats
Male Wistar rats (Taconic Europe, ˜250 g at test date) were acclimatized to handling prior to the study. Rats were divided in groups of five and subcutaneously dosed with test compound at time=0. At time T=−15 min; 1 h, 2 h, 4 h, 7 h, 12 h, and 24 h a blood sample was obtained and heparin stabilized plasma was analysed for total calcium (Cobas, Hitachi). Data are illustrated in graphs as mean±SEM.

[4] = target: T3, human amylin receptor (amylin 3(a) receptor: human calcitonin receptor + RAMP-3) (Homo sapiens, UniProt O60896+P30988); test: Assay (II)a functional assay, human amylin receptor (CRE luciferase, BHK cells); format: cell-based; details: for EC50: functional assay, human amylin receptor, read-out: hAmylin-R funct. EC50
T3 construct: expressed in transfected cells
T3 sequence (P30988 25-474): T1 sequence (P30988 25-474)
T3 sequence (O60896 24-148 partner): T2 sequence (O60896 24-148 partner)

[5] = target: T1, human calcitonin receptor; test: Assay (VII) binding to the human calcitonin receptor (SPA, 125I-Calcitonin); details: read-out: hCTR bind IC50;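 note: cell membranes coupled to SPA beads, competitive displacement read by scintillation counting, IC50 derived from a one-site competition fit as a measure of receptor affinity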
[6] = target: T4, rat amylin receptor (Rattus norvegicus, UniProt P32214+Q9JJ73); test: Assay (VI) binding to the rat amylin receptor; details: rCTR bind IC50 divided by rAmylin-R bind IC50
T4 construct: expressed in transfected cells; host or cells: BHK tk'ts 13 (transient, FuGENE 6), membranes
T4 sequence (P32214 25-479 isoform P32214-2 limits assumed): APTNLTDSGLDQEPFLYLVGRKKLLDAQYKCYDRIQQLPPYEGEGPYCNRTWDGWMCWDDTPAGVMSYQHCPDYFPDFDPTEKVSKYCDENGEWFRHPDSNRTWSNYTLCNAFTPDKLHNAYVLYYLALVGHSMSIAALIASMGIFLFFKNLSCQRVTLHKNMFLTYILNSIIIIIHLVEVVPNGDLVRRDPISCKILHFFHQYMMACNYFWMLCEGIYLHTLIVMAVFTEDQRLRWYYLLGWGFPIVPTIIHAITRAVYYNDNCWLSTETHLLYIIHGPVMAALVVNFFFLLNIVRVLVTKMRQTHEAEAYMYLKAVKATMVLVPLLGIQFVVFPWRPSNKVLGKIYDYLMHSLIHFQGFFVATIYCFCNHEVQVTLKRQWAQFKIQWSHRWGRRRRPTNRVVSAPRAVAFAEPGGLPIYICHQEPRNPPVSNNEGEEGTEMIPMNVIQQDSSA
T4 sequence (Q9JJ73 23-147 partner): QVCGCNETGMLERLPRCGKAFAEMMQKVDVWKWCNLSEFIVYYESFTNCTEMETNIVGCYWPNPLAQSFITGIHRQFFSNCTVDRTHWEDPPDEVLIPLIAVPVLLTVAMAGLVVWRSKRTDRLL
How it was run: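 Binding as in the human amylin receptor binding assay, but with membranes from BHK tk'ts 13 cells transiently co-transfected with rat calcitonin receptor and rat RAMP 3 […]. Membranes were prepared from cells harvested about 48 hours after transfection.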

EC50 [1] | IC50 [2] | Ratio hCT/hAmylin funct. ([4]; Table 6, human functional selectivity (hCTR EC50 / hAmylin-R EC50)) | Ratio hCT/hAmylin funct. ([4]; Table 6a, human functional selectivity (hCTR EC50 / hAmylin-R EC50), at least 5) | Ratio hCT/hAmylin funct. ([4]; Table 6i, hCTR funct. EC50 / hAmylin-R funct. EC50) | Ratio hCT/hAmylin funct. ([4]; Table 6j, hCTR funct. EC50 / hAmylin-R funct. EC50) | Ratio hCT/hAmylin funct. ([4]; Table 6k, hCTR funct. EC50 / hAmylin-R funct. EC50) | EC50 [4] | IC50 [5] | Ratio rCT/rAmylin binding ([6]; Table 7b) | Ratio rCT/rAmylin binding ([6]; Table 7c) | Ratio rCT/rAmylin binding [6] | Compound | Plasma calcium red (%) 0-12 h ([3]; 30 nmol/kg) | suppression of plasma calcium level relative to vehicle ([3]; single subcutaneous, over 24 hours, 30 nmol/kg) | Plasma calcium red (%) 0-12 h ([3]; 10 nmol/kg)
5.22 nM | 0.828 nM | 14.0 | 14.0 | 14.0 | 14.0 | 14.0 | 0.372 nM | 31.1 nM | – | – | – | CC[C@H](C)[C@H](NC(=O)[C@H](C)NC(=O)CNC(=O)[C@H](Cc1ccccc1)NC(=O)[C@H](CC(N)=O)NC(=O)[C@@H]1CCCN1C(=O)[C@H](CO)NC(=O)[C@H](CO)NC(=O)[C@H](Cc1c[nH]cn1)NC(=O)[C@H](CCCNC(=N)N)NC(=O)[C@H](CC(C)C)NC(=O)[C@H](Cc1ccccc1)NC(=O)[C@H](CCC(=O)O)NC(=O)[C@H](C)NC(=O)[C@H](CC(C)C)NC(=O)[C@H](CCCNC(=N)N)NC(=O)[C@H](CCC(N)=O)NC(=O)[C@@H](NC(=O)[C@H](C)NC(=O)[C@@H]1CSSC[C@H](NC(=O)[C@@H](N)CCCCNC(=O)CC[C@H](NC(=O)CCCCCCCCCCCCCCCCCCC(=O)O)C(=O)O)C(=O)N[C@@H](CC(N)=O)C(=O)N[C@@H]([C@@H](C)O)C(=O)N[C@@H](C)C(=O)N[C@@H]([C@@H](C)O)C(=O)N1)[C@@H](C)O)C(=O)N1CCC[C@H]1C(=O)N[C@@H](CO)C(=O)N[C@@H](CO)C(=O)N[C@H](C(=O)N[C@@H](CC(N)=O)C(=O)N[C@H](C(=O)NCC(=O)N[C@@H](CO)C(=O)N[C@@H](CCCNC(=N)N)C(=O)N[C@H](C(=O)N[C@@H](Cc1ccc(O)cc1)C(N)=O)[C@@H](C)O)C(C)C)[C@@H](C)O [Example 51] (H-K([γGlu-C20 diacid])CNTATCATQRLAEFLRHSSPNFGAIPSSTNVGSRTY-NH2; disulfide 2-7) | 10% | None of the example compounds at 30 nmol/kg trigger a notable suppression of the calcium level | –
1.45 nM | 0.179 nM | – | – | – | – | – | 0.101 nM | 3.8 nM | – | – | – | CC[C@H](C)[C@H](NC(=O)[C@H](C)NC(=O)CNC(=O)[C@H](Cc1ccccc1)NC(=O)[C@H](CC(N)=O)NC(=O)[C@@H]1CCCN1C(=O)[C@H](CO)NC(=O)[C@H](CO)NC(=O)[C@H](Cc1c[nH]cn1)NC(=O)[C@H](CCCNC(=N)N)NC(=O)[C@H](CC(C)C)NC(=O)[C@H](Cc1ccccc1)NC(=O)[C@H](CCC(=O)O)NC(=O)[C@H](C)NC(=O)[C@H](CC(C)C)NC(=O)[C@H](CCCNC(=N)N)NC(=O)[C@H](CCC(N)=O)NC(=O)[C@@H](NC(=O)[C@H](C)NC(=O)[C@@H]1CSSC[C@H](NC(=O)[C@@H](N)CCCCNC(=O)CC[C@H](NC(=O)CCCCCCCCCCCCCCCCCCC(=O)O)C(=O)O)C(=O)N[C@@H](CC(N)=O)C(=O)N[C@@H]([C@@H](C)O)C(=O)N[C@@H](C)C(=O)N[C@@H]([C@@H](C)O)C(=O)N1)[C@@H](C)O)C(=O)N1CCC[C@H]1C(=O)N[C@@H](CO)C(=O)N[C@@H](CO)C(=O)N[C@H](C(=O)N[C@@H](CC(N)=O)C(=O)N[C@H](C(=O)NCC(=O)N1CCC[C@H]1C(=O)N[C@@H](Cc1c[nH]cn1)C(=O)N[C@H](C(=O)N[C@@H](Cc1ccc(O)cc1)C(N)=O)[C@@H](C)O)C(C)C)[C@@H](C)O [Example 118] (H-K([γGlu-C20 diacid])CNTATCATQRLAEFLRHSSPNFGAIPSSTNVGPHTY-NH2; disulfide 2-7) | 26% | – | –
2.83 nM | 0.377 nM | – | – | – | – | – | 0.172 nM | 10.3 nM | 73.0 | 73.0 | 73.0 | CC[C@H](C)[C@H](NC(=O)[C@H](C)NC(=O)CNC(=O)[C@H](Cc1ccccc1)NC(=O)[C@H](CC(N)=O)NC(=O)[C@@H]1CCCN1C(=O)[C@H](CO)NC(=O)[C@H](CO)NC(=O)[C@H](Cc1c[nH]cn1)NC(=O)[C@H](CCCNC(=N)N)NC(=O)[C@H](CC(C)C)NC(=O)[C@H](Cc1ccccc1)NC(=O)[C@H](CCC(=O)O)NC(=O)[C@H](C)NC(=O)[C@H](CC(C)C)NC(=O)[C@H](CCCNC(=N)N)NC(=O)[C@H](CCC(N)=O)NC(=O)[C@@H](NC(=O)[C@H](C)NC(=O)[C@@H]1CSSC[C@H](NC(=O)[C@@H](N)CCCCNC(=O)CC[C@H](NC(=O)CC[C@H](NC(=O)CCCCCCCCCCCCCCCCCCC(=O)O)C(=O)O)C(=O)O)C(=O)N[C@@H](CC(N)=O)C(=O)N[C@@H]([C@@H](C)O)C(=O)N[C@@H](C)C(=O)N[C@@H]([C@@H](C)O)C(=O)N1)[C@@H](C)O)C(=O)N1CCC[C@H]1C(=O)N[C@@H](CO)C(=O)N[C@@H](CO)C(=O)N[C@H](C(=O)N[C@@H](CC(N)=O)C(=O)N[C@H](C(=O)NCC(=O)N1CCC[C@H]1C(=O)N[C@@H](Cc1c[nH]cn1)C(=O)N[C@H](C(=O)N[C@@H](Cc1ccc(O)cc1)C(N)=O)[C@@H](C)O)C(C)C)[C@@H](C)O [Example 124] (H-K([γGlu-γGlu-C20 diacid])CNTATCATQRLAEFLRHSSPNFGAIPSSTNVGPHTY-NH2; disulfide 2-7) | 11% | – | 3%
